What is called IC50 is the concentration that gives 50% inhibition. Broadly, the EC50 is the concentration that produces a half-maximal response.

Each structure is given as a SMILES string. Read-outs that look alike come from different tables or passages of the source.

Series [1] in a line: Cytotoxicity in HeLa cells without addition of OC43 virus (in parallel). The conditions noted are these: human, HeLa cells, without OC43 virus.
The next series concerns the target SARS-Cov-2 3CLpro (Severe acute respiratory syndrome coronavirus 2, UniProt P0DTD1). Briefly: biochemical. Particulars: Table A, read-out: SARS-Cov-2 (IC50).
Series [2] deals with human beta-coronavirus OC43. Description: OC43 Coronavirus Assay in HeLa cells (antiviral, cytopathic effect, cell-titer-glo). It counts as cell-based. Particulars: Betacoronavirus 1, OC43, HeLa, Table B, OC43 coronavirus in HeLa cells, read-out: EC50. For orientation: Protection from cytopathic effect is a common read-out in antiviral testing.
A further series can be described thus: in vitro. Particulars: human.
The test system of series [3] is SARS-CoV-2 B.1.1.7 lineage. Briefly: microbe, parasite or virus in culture. Particulars: Severe acute respiratory syndrome coronavirus 2, Table C, SARS-CoV-2 B.1.1.7 in A549-dual_ACE2_TMPRSS2 cells, read-out: A549-dual_ACE2_TMPRSS2 (EC50). It counts as cell-based.

`CN(C(=O)[C@H](CC1CC1)NC(=O)C(F)(F)F)[C@@H](CC1CC1)C(=O)N1C[C@@]2(C[C@H]1C#N)Oc1ncccc1NC2=O` [Compound 91]: the CC50 at 6 days in series [1] was above 10000 nM. Besides, the IC50 at SARS-Cov-2 3CLpro (class symbols) is below 20 nM. Besides, the EC50 in series [2] (class symbols) is below 100 nM.

`COc1cccc2[nH]c(C(=O)N(C)[C@@H](CC3CC3)C(=O)N3C[C@@]4(C[C@H]3C#N)Oc3cc(F)cc(F)c3NC4=O)cc12` [Compound 134]: in the series “in vitro”, the CC50 was above 1000 nM. The results for the EC50 in series [3] (cells given as a bound) and in series [2] (cells given as a bound) were above 1000 nM and above 10000 nM, respectively. Moreover, on SARS-Cov-2 3CLpro (class symbols), the IC50 was below 20 nM.

In turn, `CN(C(=O)[C@H](CCCCN)NC(=O)C(F)(F)F)[C@@H](CC1CC1)C(=O)N1C[C@@]2(C[C@H]1C#N)Oc1cccnc1NC2=O` [Compound 221] had a CC50 at 6 days in series [1] above 10000 nM. Further, the IC50 at SARS-Cov-2 3CLpro (class symbols) is below 20 nM. In series [2] (cells given as a bound), the EC50 is above 10000 nM.

In series [1], `C[C@H](Nc1ncnc2ccccc12)C(=O)N(C)[C@@H](CC1CC1)C(=O)N1C[C@@]2(C[C@H]1C#N)Oc1cccnc1NC2=O` [Compound 230] registered a CC50 at 6 days above 10000 nM. In addition, the IC50 at SARS-Cov-2 3CLpro (class symbols) was below 20 nM. In series [2] (class symbols), the EC50 lay in the range of 100 to 1000 nM.

Turning to `CN(C(=O)c1cnn(-c2ccccc2C(F)(F)F)c1)[C@@H](CC1CC1)C(=O)N1C[C@@]2(C[C@H]1C#N)Oc1cc(F)cc(F)c1NC2=O` [Compound 79], in series [1], the CC50 at 6 days was above 10000 nM. For the same molecule, the CC50 in “in vitro” was above 1000 nM. Also, the results for the EC50 in series [3] (class symbols) and in series [2] (class symbols) were 100 to 1000 nM and below 100 nM, respectively.

Turning to `CN(C(=O)[C@H](CC1CC1)NC(=O)c1ccc(F)cc1)[C@@H](CC1CC1)C(=O)N1C[C@@]2(C[C@H]1C#N)Oc1cc(F)cc(F)c1NC2=O` [Compound 77], the CC50 at 6 days in series [1] was above 10000 nM. Besides, the CC50 in “in vitro” is above 1000 nM. In addition, the EC50 in series [3] (class symbols) and in series [2] (class symbols) was below 100 nM throughout.

`Cc1ccc(C(=O)N(C)[C@@H](CC2CC2)C(=O)N2C[C@@]3(C[C@H]2C#N)Oc2cccnc2NC3=O)[nH]c1=O` [Compound 232]: in series [1], the CC50 at 6 days is above 10000 nM. Moreover, the IC50 at SARS-Cov-2 3CLpro (class symbols) was in the range of 200 to 2000 nM. Moreover, in series [2] (cells given as a bound), the EC50 is above 10000 nM.

As to `CN(C(=O)c1ccc(=O)[nH]n1)[C@@H](CC1CC1)C(=O)N1C[C@@]2(C[C@H]1C#N)Oc1cccnc1NC2=O` [Compound 231], the CC50 at 6 days in series [1] was above 10000 nM. Besides, at SARS-Cov-2 3CLpro (cells given as a bound), the IC50 was above 2000 nM. Further, in series [2] (cells given as a bound), the EC50 is above 10000 nM.

As to `CC(C)C[C@@H](C(=O)N1CC2(C[C@H]1C#N)Cn1nccc1NC2=O)N(C)C(=O)[C@H](C)NC(=O)C(F)(F)F` (stereo partly drawn) [Example 40, (2S)—N-((2S)-1-((5'S)-5′-cyano-5-oxo-4,5-dihydro-7H-spiro[pyrazolo[1,5-a]pyrimidine-6,3′-pyrrolidin]-1′-yl)-4-methyl-1-oxopentan-2-yl)-N-methyl-2-(2,2,2-trifluoroacetamido)propanamide], the CC50 in “in vitro” is above 1000 nM. Further, the EC50 in series [3] (cells given as a bound) was above 1000 nM. The IC50 at SARS-Cov-2 3CLpro (class symbols) lay within 200 to 2000 nM.

As for `CN(C(=O)c1nnc(-c2ccccc2)[nH]1)[C@@H](CC1CC1)C(=O)N1C[C@@]2(C[C@H]1C#N)Oc1cccnc1NC2=O` [Compound 210], the CC50 in “in vitro” is above 1000 nM. Also, the EC50 in series [3] (cells given as a bound) was above 1000 nM. On SARS-Cov-2 3CLpro (class symbols), the IC50 was in the range of 200 to 2000 nM.

As to `CC(C)C[C@@H](C(=O)N1C[C@]2(C[C@H]1C#N)C(=O)Nc1ccccc1C2(C)O)N(C)C(=O)[C@H](C)NC(=O)C(F)(F)F` (stereo partly drawn) [Compound 80], the CC50 at 6 days in series [1] is above 10000 nM. Moreover, the IC50 at SARS-Cov-2 3CLpro (class symbols) lay in the range of 200 to 2000 nM. The EC50 in series [2] (class symbols) was below 100 nM.

Regarding `CC(C)C[C@@H](C(=O)N1C[C@@]2(CCCNC2=O)C[C@H]1C#N)N(C)C(=O)[C@H](C)NC(=O)C(F)(F)F` [Compound 9, (S)—N—((S)-1-((3S,5R)-3-cyano-6-oxo-2,7-diazaspiro[4.5]decan-2-yl)-4-methyl-1-oxopentan-2-yl)-N-methyl-2-(2,2,2-trifluoroacetamido)propanamide], the CC50 in “in vitro” was above 1000 nM. Further, in series [3] (class symbols), the EC50 was in the range of 1000 to 10000 nM. The IC50 on SARS-Cov-2 3CLpro (class symbols) lay in the range of 20000 to 100000 nM.

`CN(C(=O)c1cnc(-c2ccccc2)[nH]1)[C@@H](CC1CC1)C(=O)N1C[C@@]2(C[C@H]1C#N)Oc1cccnc1NC2=O` [Compound 211] displayed a CC50 in “in vitro” above 1000 nM. The EC50 in series [3] (class symbols) was 100 to 1000 nM. The IC50 at SARS-Cov-2 3CLpro (class symbols) is 20 to 200 nM.

As for `N#C[C@@H]1C[C@]2(CN1C(=O)[C@H](CC1CC1)NC(=O)[C@H](CC1CC1)NC(=O)C(F)(F)F)Oc1cc(F)cc(F)c1NC2=O` [Compound 78], in series [1], the CC50 at 6 days was above 10000 nM. Also, in the series “in vitro”, the CC50 was above 1000 nM. Besides, the EC50 in series [3] (class symbols) and in series [2] (class symbols) was 100 to 1000 nM each time.

Molecule `CN(C(=O)[C@@H](NC(=O)C(F)(F)F)C1CCCC1)[C@@H](CC1CC1)C(=O)N1C[C@@]2(C[C@H]1C#N)Oc1cccnc1NC2=O` [Compound 218] came in with a CC50 in “in vitro” above 1000 nM. Also, the EC50 in series [3] (class symbols) is below 100 nM. Besides, the IC50 at SARS-Cov-2 3CLpro (class symbols) was below 20 nM.

With `CC1NC(=O)[C@]2(C[C@@H](C#N)N(C(=O)[C@H](CC3CC3)N(C)C(=O)[C@H](CC3CC3)NC(=O)C(F)(F)F)C2)Oc2ccccc21` (single isomer, unassigned) [Compound 223, (S)—N—((S)-1-((2R,5S*,5'S)-5′-cyano-5-methyl-3-oxo-4,5-dihydro-3H-spiro[benzo[f][1,4]oxazepine-2,3′-pyrrolidin]-1′-yl)-3-cyclopropyl-1-oxopropan-2-yl)-3-cyclopropyl-N-methyl-2-(2,2,2-trifluoroacetamido)propanamide], the CC50 at 6 days in series [1] was above 10000 nM. In addition, at SARS-Cov-2 3CLpro (class symbols), the IC50 is 20 to 200 nM. For the same molecule, the EC50 in series [2] (class symbols) lay within 100 to 1000 nM.

In the series “in vitro”, `COc1cccc(C[C@@H](NC(=O)C(F)(F)F)C(=O)N(C)[C@@H](CC2CC2)C(=O)N2C[C@@]3(C[C@H]2C#N)Oc2cccnc2NC3=O)c1` [Compound 152] gave a CC50 above 1000 nM. Also, the EC50 in series [3] (class symbols) is below 100 nM. Further, the IC50 at SARS-Cov-2 3CLpro (class symbols) is below 20 nM.

`C[C@H](NC(=O)C(F)(F)F)C(=O)N[C@@H](CC(C)(C)C)C(=O)N1C[C@@]2(C[C@H]1C#N)Oc1cc(F)cc(F)c1NC2=O` [Compound 68] showed a CC50 in “in vitro” above 1000 nM. Moreover, the EC50 in series [3] (cells given as a bound) is above 1000 nM. On SARS-Cov-2 3CLpro (class symbols), the IC50 lay in the range of 20 to 200 nM.

In turn, `CN(C(=O)[C@H](CC1CC1)NC(=O)C1(F)CC1)[C@@H](CC1CC1)C(=O)N1C[C@@]2(C[C@H]1C#N)Oc1cc(F)cc(F)c1NC2=O` [Compound 76] gave a CC50 at 6 days in series [1] above 10000 nM. Further, the CC50 in the series “in vitro” is above 1000 nM. For the same molecule, the EC50 in series [3] (class symbols) and in series [2] (class symbols) was below 100 nM throughout.

As for `COC(=O)N[C@@H](CC1CC1)C(=O)N(C)[C@@H](CC1CC1)C(=O)N1C[C@@]2(C[C@H]1C#N)Oc1cc(F)cc(F)c1NC2=O` [Compound 75], the CC50 at 6 days in series [1] is above 10000 nM. In the series “in vitro”, this molecule registered a CC50 above 1000 nM. Besides, the EC50 in series [3] (class symbols) is below 100 nM; in series [2] (cells given as a bound) it was above 10000 nM.

In turn, `CN(C(=O)[C@@H](Cc1cccnc1)NC(=O)C(F)(F)F)[C@@H](CC1CC1)C(=O)N1C[C@@]2(C[C@H]1C#N)Oc1cccnc1NC2=O` [Compound 151] came in with a CC50 in “in vitro” above 1000 nM. In addition, the EC50 in series [3] (class symbols) is 100 to 1000 nM. Moreover, the IC50 on SARS-Cov-2 3CLpro (class symbols) was below 20 nM.

For `CN(C(=O)[C@H](CC1CC1)NC(=O)C(F)(F)C(F)(F)F)[C@@H](CC1CC1)C(=O)N1C[C@@]2(C[C@H]1C#N)Oc1ccccc1CNC2=O` [Compound 162], in “in vitro”, the CC50 was above 1000 nM. Moreover, the concentration for a half-maximal effect (EC50) in series [3] (class symbols) was below 100 nM. In addition, at SARS-Cov-2 3CLpro (class symbols), the IC50 was below 20 nM.

`CN(C(=O)[C@@H]1CC[C@@H](c2ccccc2)N1C)[C@@H](CC1CC1)C(=O)N1C[C@@]2(C[C@H]1C#N)Oc1cc(F)cc(F)c1NC2=O` [Compound 153]: the CC50 in the series “in vitro” is above 1000 nM. In series [3] (class symbols), the EC50 was in the range of 100 to 1000 nM. Also, on SARS-Cov-2 3CLpro (class symbols), the IC50 was in the range of 20 to 200 nM.
